Among the data in PMC6301270 (MedChemComm, 2018) are viability values, retold here.

The experiment has as its system T.b. brucei (strain 427) bloodstream form parasites. The experiment in a line: T.b. brucei single concentration screen (10 μM). The note with it: Trypanosoma brucei, read-out: T.b.brucei % viability (10 µM).
For `CCCCc1ccc(NC(=O)Nc2ccc(O[C@H]3CCCC[C@@H]3N(C)c3ccccc3)c(F)c2)cc1` [MMV676063, CCCCc1ccc(NC(=O)Nc2ccc(O[C@H]3CCCC[C@@H]3N(C)c4ccccc4)c(F)c2)cc1], the viability at 10 µM came out at 91%. With `CC(=O)N(CCN(C(=O)c1ccc(F)cc1)c1ccccc1)c1ccccc1` [MMV676064, CC(=O)N(CCN(C(=O)c1ccc(F)cc1)c2ccccc2)c3ccccc3] the figure was 100%. Next, `Clc1cccc(CO[C@H]2CCc3ccccc3[C@@H]2n2ccnn2)c1` [MMV676159, Clc1cccc(CO[C@H]2CCc3ccccc3[C@@H]2n4ccnn4)c1]: 96%. Consider `c1ccc(Oc2ccc(-c3cc(CN4CCOCC4)[nH]n3)cc2)cc1` [MMV676161, C(N1CCOCC1)c2cc(n[nH]2)c3ccc(Oc4ccccc4)cc3], for which the viability at 10 µM was 43%.

With `O=C(Nc1ccccc1-c1nc2c(C(=O)O)cccc2o1)c1ccccc1` [MMV676162, OC(=O)c1cccc2oc(nc12)c3ccccc3NC(=O)c4ccccc4], the viability at 10 µM worked out at 101%. On to `Nc1ncnc2c1c(Cc1cccc3ccccc13)nn2CC1CCNCC1` [MMV676182, Nc1ncnc2c1c(Cc3cccc4ccccc34)nn2CC5CCNCC5], for which the viability at 10 µM is 98%. With `COC(=O)c1cccc2oc(-c3cccc(OC)c3NC(=O)c3cc(-c4ccccc4)on3)nc12` [MMV676186, COC(=O)c1cccc2oc(nc12)c3cccc(OC)c3NC(=O)c4cc(on4)c5ccccc5], the viability at 10 µM was 90%. `CC(C)C(Oc1cccc2ccccc12)C(=O)O` (stereo not drawn) [MMV676191, CC(C)C(Oc1cccc2ccccc12)C(=O)O]: the viability at 10 µM amounted to 103%.

Turning to `O=C(c1ccc(F)cc1)N(CCNc1ccccc1)c1ccccc1` [MMV676204, Fc1ccc(cc1)C(=O)N(CCNc2ccccc2)c3ccccc3], the viability at 10 µM was 97%. As to `CN1CCN(c2nccc3nc(-c4ccc(F)c(F)c4)[nH]c23)CC1` [MMV676260, CN1CCN(CC1)c2nccc3nc([nH]c23)c4ccc(F)c(F)c4], the viability at 10 µM came out at 49%. Turning to `C[C@H](C(N)=O)N1CCCC[C@H]1c1ccc(OCc2cccc(F)c2)cc1` [MMV676269, C[C@@H](N1CCCC[C@H]1c2ccc(OCc3cccc(F)c3)cc2)C(=O)N], the viability at 10 µM turned out to be 92%. With `C[C@H](C(N)=O)N1CCCC[C@@H]1c1ccc(OCc2cccc(F)c2)cc1` [MMV676270, C[C@@H](N1CCCC[C@@H]1c2ccc(OCc3cccc(F)c3)cc2)C(=O)N] the figure was 97%. For the compound `Cc1cnc(CCNC(=O)c2cc(-c3ccc(Cl)cc3)cs2)[nH]1` [MMV676350, Cc1cnc(CCNC(=O)c2cc(cs2)c3ccc(Cl)cc3)[nH]1], the viability at 10 µM was found to be 47%. As to `Nc1ncc(Br)cc1-c1nc2cc(Cl)cnc2[nH]1` [MMV676358, Nc1ncc(Br)cc1c2nc3cc(Cl)cnc3[nH]2], the viability at 10 µM worked out at 98%. With `Brc1c(-c2ccc3c(c2)OCO3)nc2ncccn12` [MMV676377, Brc1c(nc2ncccn12)c3ccc4OCOc4c3] the figure was 96%. Next, `COc1cccc(OCC(=O)c2ccc(Br)cc2)c1` [MMV676379, COc1cccc(OCC(=O)c2ccc(Br)cc2)c1]: 104%. Turning to `CC(=O)Nc1ccc(NC(=O)c2cc(-c3cc(Cl)ccc3O)[nH]n2)cc1` [MMV676380, CC(=O)Nc1ccc(NC(=O)c2cc([nH]n2)c3cc(Cl)ccc3O)cc1], the viability at 10 µM stood at 78%. `Cn1ncc2c(N3CCOCC3)nc(NCCc3c[nH]c4ccccc34)nc21` [MMV676382, Cn1ncc2c(nc(NCCc3c[nH]c4ccccc34)nc12)N1CCOCC1]: the viability at 10 µM came out at 93%.

With `CCC(Sc1nc2ccccc2o1)C(=O)Nc1nccs1` (stereo not drawn) [MMV676383, CCC(Sc1oc2ccccc2n1)C(=O)Nc3nccs3], the viability at 10 µM was 86%. For the compound `N#Cc1nc(-c2ccccc2F)oc1NCCc1ccccc1` [MMV676384, Fc1ccccc1c2oc(NCCc3ccccc3)c(n2)C#N], the viability at 10 µM worked out at 107%. On to `Cc1cccc(Cn2ccc(NC(=O)c3ccc4c(c3)OCO4)n2)c1` [MMV676386, Cc1cccc(Cn2ccc(NC(=O)c3ccc4OCOc4c3)n2)c1], for which the viability at 10 µM was found to be 95%. As to `COc1cccc(-n2nnnc2S(=O)(=O)Cc2ccccc2)c1` [MMV676388, COc1cccc(c1)n2nnnc2S(=O)(=O)Cc3ccccc3], the viability at 10 µM worked out at 87%. For the compound `O=C(c1[nH]nc2c1CCCC2)N1CCN(Cc2ccc3c(c2)OCO3)CC1` [MMV676389, O=C(N1CCN(Cc2ccc3OCOc3c2)CC1)c4[nH]nc5CCCCc45], the viability at 10 µM was found to be 95%. As for `O=C(Nc1cccnc1)c1c(O)c2cccc3c2n(c1=O)CC3` [MMV676395, OC1=C(C(=O)Nc2cccnc2)C(=O)N3CCc4cccc1c34], the viability at 10 µM stood at 106%. With `CCS(=O)(=O)N(Cc1ccco1)Cc1cc2ccc(C)cc2nc1O` [MMV676398, CCS(=O)(=O)N(Cc1occc1)Cc2cc3ccc(C)cc3nc2O], the viability at 10 µM was determined as 86%. `c1coc(CNc2nc(N3CCCCC3)nc3ccccc23)c1` [MMV676401, C(Nc1nc(nc2ccccc12)N3CCCCC3)c4occc4]: the viability at 10 µM stood at 58%. Next, `CC(C)n1ncc2c(C(=O)NCC(c3cccs3)N3CCOCC3)cc(-c3ccccc3)nc21` (stereo not drawn) [MMV676406, CC(C)n1ncc2c(cc(nc12)c3ccccc3)C(=O)NCC(N4CCOCC4)c5cccs5]: 61%.

For the compound `N#Cc1nc(-c2ccccc2)oc1S(=O)(=O)c1ccc(Cl)cc1` [MMV676412, Clc1ccc(cc1)S(=O)(=O)c2oc(nc2C#N)c3ccccc3], the viability at 10 µM worked out at 28%.

For `Cc1ccc(NC(=O)CC2COc3ccccc3O2)cc1Cl` (stereo not drawn) [MMV676431, Cc1ccc(NC(=O)CC2COc3ccccc3O2)cc1Cl], the viability at 10 µM was 77%.

In the case of `Cc1ccc2nc(Cl)c(CNCc3cccs3)cc2c1` [MMV676439, Cc1ccc2nc(Cl)c(CNCc3cccs3)cc2c1], the viability at 10 µM was determined as 99%. With `CC(C)c1ncc(-c2ccncc2)c([C@H]2CC[C@H](CNC(=O)c3cccnc3)CC2)n1` [MMV676442, CC(C)c1ncc(c2ccncc2)c(n1)[C@@H]3CC[C@@H](CNC(=O)c4cccnc4)CC3] the figure was 103%; with `O=C(NC1CCCCC1)N1CCN(Cc2ccc3c(c2)OCO3)CC1` [MMV676444, O=C(NC1CCCCC1)N2CCN(Cc3ccc4OCOc4c3)CC2], 109%; with `CCCn1c(CNc2ccccc2O)nc2ccccc21` [MMV676445, CCCn1c(CNc2ccccc2O)nc3ccccc13], 109%.

For the compound `CCc1nc2ccccc2n1CC(O)COc1cc(C)ccc1Cl` (stereo not drawn) [MMV676449, CCc1nc2ccccc2n1CC(O)COc3cc(C)ccc3Cl], the viability at 10 µM came to 83%.

As for `CCOC(=O)c1cc(-c2csc(Nc3c(C)cc(C)cc3C)n2)on1` [MMV676461, CCOC(=O)c1cc(on1)c2csc(Nc3c(C)cc(C)cc3C)n2], the viability at 10 µM was determined as 102%. Next, `CCOc1ccc(OCC(=O)Nc2cc(C)cc(C)c2)cc1` [MMV676470, CCOc1ccc(OCC(=O)Nc2cc(C)cc(C)c2)cc1]: 75%; `COc1cccc(OC)c1C(=O)Nc1ccc(Cl)c(-c2nc3ccccc3s2)c1` [MMV676472, COc1cccc(OC)c1C(=O)Nc2ccc(Cl)c(c2)c3nc4ccccc4s3]: 100%. In the case of `COc1ccccc1OCCCCn1c(C2CC2)nc2ccccc21` [MMV676474, COc1ccccc1OCCCCn2c(nc3ccccc23)C4CC4], the viability at 10 µM is 93%.

As to `Cc1cc(C)cc(COc2ccc3c(C)c(CCC(=O)O)c(=O)oc3c2C)c1` [MMV676476, CC1=C(CCC(=O)O)C(=O)Oc2c(C)c(OCc3cc(C)cc(C)c3)ccc12], the viability at 10 µM was 94%. With `COC(=O)c1c(NC(=O)c2cc3ccccc3oc2=O)sc2c1CCN(Cc1ccccc1)C2` [MMV676480, COC(=O)c1c2CCN(Cc3ccccc3)Cc2sc1NC(=O)C4=Cc5ccccc5OC4=O] the figure was 101%. Next, `O=C(Nc1nnc(S)s1)c1cc(Br)ccc1Cl` [MMV676492, Sc1nnc(NC(=O)c2cc(Br)ccc2Cl)s1]: 106%; `O=C(Nc1nnc(-c2ccc(Cl)s2)o1)c1ccc(Cl)s1` [MMV676501, Clc1ccc(s1)C(=O)Nc2oc(nn2)c3ccc(Cl)s3]: 93%. With `Cc1ccc2oc(-c3cc(NC(=O)Cc4ccccc4)ccc3Cl)nc2c1` [MMV676509, Cc1ccc2oc(nc2c1)c3cc(NC(=O)Cc4ccccc4)ccc3Cl], the viability at 10 µM is 99%. With `O=C(c1cc2ccccc2o1)N1CCN(Cc2ccc3c(c2)OCO3)CC1` [MMV676520, O=C(N1CCN(Cc2ccc3OCOc3c2)CC1)c4oc5ccccc5c4], the viability at 10 µM came to 97%.

As for `Nc1cccnc1Nc1ccc(Cl)cc1` [MMV676524, Nc1cccnc1Nc2ccc(Cl)cc2], the viability at 10 µM worked out at 110%.

As to `COc1ccc(-c2cc(NC(=O)c3ccc(F)cc3Cl)ccc2OC)cc1` [MMV676526, COc1ccc(cc1)c2cc(NC(=O)c3ccc(F)cc3Cl)ccc2OC], the viability at 10 µM came out at 93%. Turning to `Cc1cccc(NC(=O)c2cc(S(=O)(=O)N(C)c3ccc(F)cc3)ccc2Cl)n1` [MMV676528, CN(c1ccc(F)cc1)S(=O)(=O)c2ccc(Cl)c(c2)C(=O)Nc3cccc(C)n3], the viability at 10 µM stood at 96%. With `COCC(C)NC(=O)CSc1ncnc2sc(-c3ccccc3)cc12` (stereo not drawn) [MMV676536, COCC(C)NC(=O)CSc1ncnc2sc(cc12)-c1ccccc1] the figure was 97%; with `O=C(NCCc1c[nH]c2ccccc12)c1cc2ccccc2oc1=O` [MMV676539, O=C(NCCc1c[nH]c2ccccc12)C3=Cc4ccccc4OC3=O], 83%.

With `COc1ccc(Nc2ccccc2NC(=O)c2ccc(O)nc2)cc1` [MMV676554, COc1ccc(Nc2ccccc2NC(=O)c3ccc(O)nc3)cc1], the viability at 10 µM was 115%.

`Cc1nnc(NCc2cccc(Cl)c2)c2ccccc12` [MMV676555, Cc1nnc(NCc2cccc(Cl)c2)c3ccccc13]: the viability at 10 µM came out at 97%. For `CC1=NN(c2nc3ccccc3s2)C(=O)C1Cc1cccc2ccccc12` (stereo not drawn) [MMV676558, CC1=NN(C(=O)C1Cc2cccc3ccccc23)c4nc5ccccc5s4], the viability at 10 µM came to 45%. As for `COc1ccc(-c2nc(-c3cccc(NC(=O)Cc4ccc(F)cc4)c3)no2)cc1OC` [MMV676571, COc1ccc(cc1OC)c2onc(n2)c3cccc(NC(=O)Cc4ccc(F)cc4)c3], the viability at 10 µM came out at 53%. `O=C(NC1=NCCS1)c1sc2cc(F)ccc2c1Cl` [MMV676584, Fc1ccc2c(Cl)c(sc2c1)C(=O)NC3=NCCS3]: the viability at 10 µM was found to be 82%.
